One data set concerns human whole blood. Kind of data set: Cytokine secretion in human whole blood assay, ELISA. Format: cell-based. The following applies: whole blood, 6 hours. The procedure: Before drawing the blood, the compounds were added to 96 well round bottom plates in a 10× diluted sample at 20 ul. The compounds were diluted in RPMI media without serum but with antibiotics. Antibiotics were added at a 10× concentration. After drawing the blood, the whole blood sample was gently mixed to obtain a homogeneous sample, and 180 ul was added to each well.
All compounds were setup in concentrations at 0-0.01-0.03-0.1-0.5-2.0-10.0 micromolar as the final concentration. Vehicle control was DMSO control, where we used the highest concentration used for the compounds. After addition of blood, all plates were gently agitated at 37° C. and 5% CO2 until harvest.
For the 6 hours time point, the plate was centrifuged 500×g. Supernatant (SN) was transferred to a tube and centrifuged at 10.000×g for 10 min to get rid of cells and protein aggregates. The clarified supernatant was frozen at −80° C. until analysis.
The SN was removed to another tube and centrifuged at 10.000×g for 10 min. to get rid of aggregates etc. The clarified supernatant was frozen at −80° C. until analysis.
Concentrations of cytokines were determined by ELISA from R&D Systems. The results were analyzed in Graph Pad Prism in order to prepare dose-response
curves, and for determination of EC50 values. FACS analysis was made by using Becton-Dickinson FACSDiva software and subsequently illustrated in Graph Pad Prism.
A general note: ELISA stands for enzyme-linked immunosorbent assay.

The test system of the next data set is HLA-DR+/CD20+ B cells. Kind of data set: FACS, B cell activation in whole blood. In kind it is cell-based, human. The note with it: 24 hours; 2 and 10 uM. A general note: Flow cytometry measures light scatter and fluorescence of single cells or particles in a stream.
Data set [1] relates to plasmacytoid CD11c−/CD123+DCs. Kind of data set: FACS, plasmacytoid DC activation in whole blood. Format: cell-based, human. The note with it: 24 hours; 0.1 and 0.5 uM.
Procedure: (§1) The FACS analysis for donor 1 and donor 2 was made on another day than donor 3. The compound concentrations were as follows:
(§2) B cell activation: 2 and 10 uM mDC/pDC: 0.1 and 0.5 uM
(§3) The FACS analysis was used to identify whether the test compounds could induce activation of B cells, and two different subsets of dendritic cells, namely the myeloid CD11c+/CD123− DCs and the plasmacytoid CD11c−/CD123+DCs. The following markers were studied to identify the activation status of the different subsets:
The FACS staining was performed according to the manufacturer's instructions. Lysis of red blood cells was performed before FACS staining in order to minimize auto-florescence. To include as many B cells and DCs in the study as possible the FACS analyses were performed on 500,000 cells in total for each staining. A P1 gate was set only to include relevant cells on FSC vs. SSC (see FIGS. 12-15). The results of the individual analysis were present as Mean Fluorescence Intensity (MFI) values, for certain activation marker in a given gate setting, represent the actual cell subset. The isotype background values have been used to set the gates so that a maximum at 2% of unspecific stained cells could be found in the positive gates.
The analysis of pDCs was based on HLA-DR+/CD11c−/CD123+ cells, thus all analyzed cells were included in the HLA-DR+ (P3) gate and CD11c−/CD123+(Q1) gate.
The next data set relates to NFκB-bla Raw 264.7 Cells. Kind of data set: NFκB activation in NFκB-bla Raw 264.7 cells. The following applies: FIG. 2. In kind it is cell-based, mouse.
Data set [2] can be described thus: Single dose intravenous toxicity study in rats. In kind it is in vivo, Sprague Dawley rat. The procedure: An additional group, similarly composed, received the vehicle alone and acted as a control. […] Clinical signs were limited to piloerection and reduced activity, observed on the day of dosing.
A second group was dosed at 100 mg/kg. […] A third group was then dosed at 85 mg/kg. […] A fourth group was finally dosed at 90 mg/kg. […] Piloerection was observed from Day 2 up to Day 4 of the study.
In the main phase, 5 male and 5 female animals were dosed at 90 mg/kg and observed for a period of 14 days. A second group, similarly constituted, received the vehicle alone and acted as control. […] In addition, one male and one female dosed at 90 mg/kg were found dead on Day 2 of the study. Twitches, ataxia, piloerection, reduced activity and hunched posture were the major signs observed in animals before death. […] Piloerection was observed up to Day 3 of the study. A second group, similarly composed, was dosed at 80 mg/kg.
Recovery occurred by Day 15 and the body weight changes were within the expected range for this species and age of animals at the end of the study. […] Surviving animals were killed at the end of the observation period with carbon dioxide narcosis. All animals, including the early decedents, were subjected to necropsy examination. […] Therefore, the maximum tolerated dose in this study was considered to be 80 mg/kg.

Data set [3] relates to 73 primary molecular targets. Kind of data set: Radioligand binding assay among 73 primary molecular targets. The note with it: SC12 tested at 30 microM.
Another data set deals with T1, CYP2C9 (Homo sapiens, UniProt P11712).
T1 construct: purchased Gentest
Kind of data set: Fluorescent High Throughput P450 assay, CYP2C9. Format: biochemical.

The next data set concerns MB49 cells. Kind of data set: Mouse bladder cancer model, intravesical treatment (Experiment 24). Format: in vivo. How it is done: A set of experiments was conducted with SC12 in various solutions, in a mouse bladder cancer model.
7-9 week old C57BU6 mice were implanted with 1×10^6 MB49 cells after 0.1% poly L lysine treatment on day 0. […] On day 11, mice were sacrificed and organs were harvested.

A further data set relates to RAW.264 cells. Kind of data set: Intracellular uptake in RAW.264 cells, LC-MS. Format: in vitro ADME. The note with it: 10 microM. The procedure:
5×10^6 RAW.264 cells were adhered overnight in 10 cm tissue culture dishes. […] […] Supernatant (2 ml) and cells (pellets) were collected by trypsinization and frozen at […] for subsequent analysis by LC-MS.

The nature of data set [4]: Solubility observations in the text.

Molecules are shown by their SMILES.

T1 sequence (P11712 whole entry): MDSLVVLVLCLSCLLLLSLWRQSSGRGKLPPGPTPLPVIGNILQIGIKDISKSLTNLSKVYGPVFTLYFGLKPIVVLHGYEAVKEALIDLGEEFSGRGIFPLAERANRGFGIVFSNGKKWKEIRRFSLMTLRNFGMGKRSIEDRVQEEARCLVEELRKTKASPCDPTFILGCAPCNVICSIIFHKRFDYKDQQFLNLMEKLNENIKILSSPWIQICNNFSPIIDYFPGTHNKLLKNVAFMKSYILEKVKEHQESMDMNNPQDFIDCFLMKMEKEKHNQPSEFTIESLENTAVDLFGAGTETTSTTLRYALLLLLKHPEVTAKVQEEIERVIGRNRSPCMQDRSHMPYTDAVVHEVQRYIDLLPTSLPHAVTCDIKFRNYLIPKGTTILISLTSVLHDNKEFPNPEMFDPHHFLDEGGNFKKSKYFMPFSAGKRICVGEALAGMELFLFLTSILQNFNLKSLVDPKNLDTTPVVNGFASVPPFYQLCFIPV
Procedure for CYP2C9: Inhibition of the P450 isoforms was measured in specific assays using specific substrates that become fluorescent upon CYP metabolism. Compounds, dissolved in ACN (acetonitrile) (CYP2E1, CYP2C8, CYP2B6, CYP3A5) or DMSO (all remaining isoforms), were tested in duplicate (n=2) in concentration-response curves (eight concentrations) in a 96-well plate containing incubation/NADPH regenerating buffer. Specific isoenzymes and substrates were added and incubated at 37° C. Reactions were terminated at different times, depending on the assays, and plates read on a Fluoroskan Ascent at the appropriate emission/excitation wavelengths. Concentration-response curves performed in duplicate for known inhibitors for each isoenzyme were tested in every assay as positive control.
Procedure for HLA-DR+/CD20+ B cells: as §1, §2, §3
B-cells: HLA-DR/CD20/CD40
The FACS staining was performed according to the manufacturer's instructions. Lysis of red blood cells was performed before FACS staining in order to minimize auto-florescence. To include as many B cells and DCs in the study as possible the FACS analyses were performed on 500,000 cells in total for each staining. […] The results of the individual analysis were present as Mean Fluorescence Intensity (MFI) values, for certain activation marker in a given gate setting, represent the actual cell subset. The isotype background values have been used to set the gates so that a maximum at 2% of unspecific stained cells could be found in the positive gates.
The analysis of expression of the activation marker CD40 on B cells was made on double positive HLA-DR (MHC class II) (P4 gate) and CD20 cells (B cell marker) (P8 gate).
Procedure for NFκB-bla Raw 264.7 Cells: NFκB-bla Raw 264.7 Cells were purchased from Life Technologies Corporation (Carlsbad, Calif.). […] Drugs were dissolved and diluted in DMSO to obtain an initial stock solution (10 or 50 mM). Drugs were then serially diluted (usually 1:3 or 1:5) in DMSO. The stock solutions were further diluted in Assay Medium and added to cells already in each well.

Take `CCCCCCCCCCCC(=O)OCC(COP(=O)(O)OCCNC(=O)c1ccc(Cn2c(=O)[nH]c3c(N)nc(OCCOC)nc32)cc1)OC(=O)CCCCCCCCCCC` (stereo not shown) [SC12]: the “IL-10 production” value in the data set with human whole blood is “no IL-10 production was seen”. Besides, the “CD40 expression on B cells (MFI, words)” value with HLA-DR+/CD20+ B cells is “induced CD40 expression in donor 1 and donor 2 in all tested concentrations”. Further, in data set [1], the “CD80 expression in pDCs (MFI, words)” value is “slightly higher CD80 expression than compound A”. Further, the “CD86 expression in pDCs (MFI, words)” value in [1] is recorded as “tendency to induce higher CD86 expression than compound A”. For the same compound, the “activity in NFkB RAW cells” value with NFκB-bla Raw 264.7 Cells is recorded as “more active than the free pharmocophore”. Also, the “mortality and clinical signs” value in data set [2] (76 mg/kg, preliminary phase) was “No mortality occurred”; in data set [2] (80 mg/kg, main phase), “No mortality occurred and no clinical signs were recorded”; in [2] (85 mg/kg, preliminary phase) it was “Piloerection was observed on the day of dosing”; in data set [2] (90 mg/kg, main phase, 5 male and 5 female), “Three males treated at 90 mg/kg died immediately after dosing, while two females died at 2 hours post-dose”; in [2] (90 mg/kg, preliminary phase), “No mortality occurred”; in data set [2] (100 mg/kg, preliminary phase) it was “Both animals died at dosing”. The “necropsy examination” value in [2] (90 mg/kg and 80 mg/kg) was “No abnormalities were observed at necropsy examination”. For the same compound, the “body weight” value in data set [2] (surviving animals at 90 mg/kg and animals at 80 mg/kg) is “slight to moderate body weight loss on Day 2”. The “binding to receptors associated with pain-related syndromes (e.g. adenosine and sodium channel)” value in data set [3] is on record as “did not bind this type of receptors”. Also, the “inhibition of CYP2C9” value against CYP2C9 is “weak inhibition”. Also, in the data set on MB49 cells (Experiment 1, in Phosal 50, 50 microliters, 20 minutes, 2 h and 24 h), the “serum IL-6 and TNF-alpha” value is “under the detection levels”. In addition, the “bladder histology, cell infiltration” value in the data set on MB49 cells (Experiment 4, SC12 0.38%, MB49 implanted bladder, day 11) is “more monocyte infiltration”. For the same compound, the “Intracellular Concentration % of total” value is recorded as 18.5 % of total in the data set on RAW.264 cells (Incubation 1 hours), 20.6 % of total in the data set with RAW.264 cells (Incubation 6 hours) and 21.4 % of total in the data set with RAW.264 cells (Incubation 18 hours). For the same compound, the “solubility” value in data set [4] (P450 assays, especially in ACN) is on record as “low solubility”. Besides, the “precipitation in bacterial mutation assay” value in data set [4] (toxicity test, two highest concentrations (5000 and 1580 micrograms/plate), end of incubation) was “Precipitation”.

The record behind these values is US20120003298A1, “METHODS FOR INDUCING AN IMMUNE RESPONSE” (priority 2010, published 2012).
